The results in this text go back to patent EP0278452A2, “2,4- and 2,5-Pyridine-dicarboxylic-acid derivatives, process for their preparation, their use and medicines based on these compounds” (HOECHST AKTIENGESELLSCHAFT, priority 1987, dated 1988).

In the test the test system is Prolin- und Lysinhydroxylase. Briefly: CCl4-induced liver injury (fibrosis) in rats: collagen markers after treatment with the compound. The settings on record: rats given CCl4, then compound, Dosierung 2 x 25 mg. Type of test: in vivo, Ratten. The source says: Die Aktivität der Fibrogenase kann durch radioimmunologische Bestimmung des N-terminalen Propeptids des Kollagens Typ III oder der N- bzw. C-terminalen Quervernetzungsdomäne des Kollagens Typ IV (7s-Kollagen bzw. Typ-IV-Kollagen-NC₁) im Serum bestimmt werden.
Zu diesem Zweck wurden die Hydroxyprolin-, Prokollagen-III-Peptid-, 7s-Kollagen- und Typ-IV-Kollagen-NC₁-Konzentrationen in der Leber von • a) unbehandelten Ratten (Kontrolle) • b) Ratten, denen Tetrachlorkohlenstoff verabreicht wurde (CCl₄-Kontrolle) • c) Ratten, denen zunächst CCl₄ und anschließend eine erfindungsgemäße Verbindung verabreicht wurde gemessen (diese Testmethode wird beschrieben von Rouiller, C., experimental toxic injury of the liver; in The Liver, C. Rouiller, Vol. 2, S. 335-476, New York, Academic Press, 1964).
Die pharmakologische Wirksamkeit der erfindungsgemäßen Substanzen wurde in einer Versuchsreihe (s. Tabelle 1) untersucht. Dabei zeigte sich eine deutliche Hemmung der Prolin- und Lysinhydroxylase.

Molecules are shown by their SMILES.

For `COC(=O)C(C)(C)COC(=O)c1ccc(C(=O)OCC(C)(C)C(=O)OC)nc1` [compound 4, Pyridin-2,5-dicarbonsäure-bis(2-methoxycarbonyl-2,2-dimethylethyl)ester], the Hydroxy-prolin (CCl4-Kontrolle 0.773, Kontrolle 0.289) came out at 0.482 µg/mg Leber. In addition, where the note is “CCl4-Kontrolle 73.9, Kontrolle 11.1”, the Prokollagen-III-Peptid is 37.2 ng/mL. This compound also showed a Typ-IV-Kollagen-NC1 (CCl4-Kontrolle 168.4, Kontrolle 23.5) of 100.8 ng/mL. Also, for the setting “CCl4-Kontrolle 308.7, Kontrolle 22.8”, the 7s-Kollagen was determined as 121.4 ng/mL.
